Results from ChEMBL document CHEMBL1201862, “PubChem BioAssay data set” (2004).
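Where inhibition never reached the appropriate level, the endpoint shown equals the highest concentration tested. Otherwise, values were interpolated linearly from a five-concentration, 48-hour dose response in 96-well plates. GI50 marks 50% less growth.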 Activity calls are given as the source filed them. No stated cut-off is given here; in the data, active = GI50 up to about 1.1 µM and inactive = higher.

Columns and labels:
Assay in all cases: NCI anticancer screen, dose series, 48 h
[1] = test system: DLD-1
[2] = test system: DMS-273
[3] = test system: HOP-18
[4] = test system: M19-MEL
[5] = test system: SNB-78
[6] = test system: XF498
[7] = test system: MDA-MB-435
[8] = test system: LXFL 529
[9] = test system: RXF 631

Structure (SMILES): CC1=C(O)C(=O)[C@@H]2O[C@@H]2C1=O
- GI50 [1]: 7.28 µM (inactive)
- GI50 [2]: 22.8 µM (inactive)
- GI50 [3]: 12.5 µM (inactive)
- GI50 [4]: 11.2 µM (inactive)
- GI50 [5]: 15.6 µM (inactive)
- GI50 [6]: 10.4 µM (inactive)

Structure (SMILES): CCOC(=O)/C=C/CC(C)(C)COC(C)=O
- GI50 [7]: > 10 µM (inactive)

Structure (SMILES): COc1cc(CC(C)NC(C)=O)cc(OC)c1 (stereo not drawn)
- GI50 [7]: > 100 µM (inactive)

Structure (SMILES): O=C(CCCN1CCC2(CC1)OC(=O)N(c1ccccc1)C2=O)c1ccccc1
- GI50 [7]: > 100 µM (inactive)

Structure (SMILES): CC1SC(=O)SC1C (stereo not drawn)
- GI50 [7]: > 100 µM (inactive)

Structure (SMILES): CC1=C(C(=O)Nc2ccccc2)C2(CCCCC2)C(C#N)=C(SCC(=O)Nc2ccc(Br)cc2)N1
- GI50 [7]: 4.47 µM (inactive)

Structure (SMILES): Cc1ccc(C)c(C2NC(=O)c3ccccc3N2)c1 (stereo not drawn)
- GI50 [7]: 0.0792 µM (active)

Structure (SMILES): CCCCc1c2c(nc3c1CCCC3=O)CCCC2
- GI50 [2]: > 100 µM (inactive)
- GI50 [8]: > 100 µM (inactive)
- GI50 [4]: > 100 µM (inactive)
- GI50 [6]: > 100 µM (inactive)

Structure (SMILES): C#CCCCCC#CC1CCCC1C1=CC(=O)c2ccccc21 (stereo not drawn)
- GI50 [1]: 8.71 µM (inactive)
- GI50 [2]: 3.49 µM (inactive)
- GI50 [3]: 12.5 µM (inactive)
- GI50 [6]: 8.36 µM (inactive)

Structure (SMILES): O=C(CNc1cccc(Cl)c1)Nn1c(-c2ccccc2)nc2ccccc2c1=O
- GI50 [7]: 4.2 µM (inactive)

Structure (SMILES): CCC(COC(=O)CC[C@@H](NC(=O)C(C)NC(=O)C(C)OC1C(O)C(CO)OC(OCc2ccccc2)C1NC(C)=O)C(N)=O)NC1c2ccccc2Nc2cccc([N+](=O)[O-])c21 (stereo partly drawn)
- GI50 [1]: > 100 µM (inactive)
- GI50 [2]: > 100 µM (inactive)
- GI50 [3]: 69.2 µM (inactive)
- GI50 [8]: 41.8 µM (inactive)
- GI50 [4]: > 100 µM (inactive)
- GI50 [5]: > 100 µM (inactive)
- GI50 [6]: > 100 µM (inactive)

Structure (SMILES): CC1=CC(=O)c2ccc(C)cc2C1=O [CHIMAPHILIN]
- GI50 [7]: 2.49 µM (inactive)

Structure (SMILES): COC(=O)C12CC(c3ccccc31)C1C(=O)OC(=O)C12 (stereo not drawn)
- GI50 [1]: > 100 µM (inactive)
- GI50 [2]: > 100 µM (inactive)
- GI50 [8]: > 100 µM (inactive)
- GI50 [4]: > 100 µM (inactive)
- GI50 [5]: > 100 µM (inactive)
- GI50 [6]: > 100 µM (inactive)

Structure (SMILES): COC(=O)[C@H]1C=NN[C@@H]1C(=O)N1[C@H]2CC3CC[C@@]2(CS1(=O)=O)C3(C)C
- GI50 [7]: > 100 µM (inactive)

Structure (SMILES): COc1ccc2nc3cccc([N+](=O)[O-])c3c(NCCO)c2c1
- GI50 [7]: 0.00656 µM (active)

Structure (SMILES): O=P1(Oc2ccc(Cl)cc2Cl)Oc2cc3ccccc3cc2O1
- GI50 [1]: 56.8 µM (inactive)
- GI50 [2]: 59.6 µM (inactive)
- GI50 [3]: 62.2 µM (inactive)
- GI50 [5]: > 100 µM (inactive)
- GI50 [6]: 33.1 µM (inactive)

Structure (SMILES): CN(C)c1ccc(/C=C/C(=O)O)cc1
- GI50 [1]: > 100 µM (inactive)
- GI50 [3]: > 100 µM (inactive)
- GI50 [8]: > 100 µM (inactive)
- GI50 [4]: > 100 µM (inactive)
- GI50 [5]: > 100 µM (inactive)
- GI50 [6]: > 100 µM (inactive)

Structure (SMILES): O=C1CCCCc2cccc(O)c21
- GI50 [7]: > 100 µM (inactive)

Structure (SMILES): O=C(CSSCC(=O)Nc1ccc(Br)cc1)Nc1ccc(Br)cc1
- GI50 [1]: 18.1 µM (inactive)
- GI50 [2]: 16.5 µM (inactive)
- GI50 [8]: 16 µM (inactive)
- GI50 [4]: 18.5 µM (inactive)
- GI50 [5]: 15.1 µM (inactive)
- GI50 [6]: 20.1 µM (inactive)

Structure (SMILES): CC(=O)c1ccc(NC(=O)C(=O)C(C#N)CC(C)(C)C=O)cc1 (stereo not drawn)
- GI50 [8]: > 100 µM (inactive)
- GI50 [4]: > 100 µM (inactive)
- GI50 [5]: > 100 µM (inactive)
- GI50 [6]: > 100 µM (inactive)

Structure (SMILES): COc1cc2c(c3nc4ccccc4nc13)-c1ccc(SC)c(=O)cc1[C@@H](NC(C)=O)CC2
- GI50 [7]: 0.0166 µM (active)

Structure (SMILES): CCN(CC)CCCNc1n[n+]([O-])c2ccccc2[n+]1[O-]
- GI50 [7]: 38.4 µM (inactive)

Structure (SMILES): Oc1ccc(/C=N/N=c2\[nH][nH]/c(=N\N=C\c3ccc(O)cc3O)c3ccccc23)c(O)c1
- GI50 [7]: 0.314 µM (active)

Structure (SMILES): CC(C)(C)OC(=O)NC(Cc1ccc([N+](=O)[O-])cc1)C(=O)NC(CCCCNC(=O)OCc1ccccc1)C(=O)ON1C(=O)CCC1=O (stereo not drawn)
- GI50 [7]: > 100 µM (inactive)

Structure (SMILES): Cc1cc(S(=O)(=O)Nc2nc3ccccc3nc2-c2cccc([N+](=O)[O-])c2)c(S)cc1Cl
- GI50 [7]: 19.8 µM (inactive)

Structure (SMILES): Cc1cc(NS(=O)(=O)c2ccc(NC(=O)c3cccc4cc5ccccc5nc34)cc2)no1
- GI50 [1]: 19.9 µM (inactive)
- GI50 [2]: 13.8 µM (inactive)
- GI50 [8]: 15.8 µM (inactive)
- GI50 [4]: 16.6 µM (inactive)
- GI50 [9]: 17.7 µM (inactive)
- GI50 [5]: 29.9 µM (inactive)
- GI50 [6]: 17 µM (inactive)

Structure (SMILES): CCOC(=O)C(N=C(c1ccccc1)c1ccccc1)N(C(=O)OC(C)(C)C)C(=O)OC(C)(C)C (stereo not drawn)
- GI50 [8]: 75.2 µM (inactive)
- GI50 [4]: > 100 µM (inactive)
- GI50 [5]: > 100 µM (inactive)

Structure (SMILES): C=C(C(=C)P(=S)(c1ccccc1)c1ccccc1)P(=S)(c1ccccc1)c1ccccc1
- GI50 [2]: > 100 µM (inactive)
- GI50 [3]: > 100 µM (inactive)
- GI50 [8]: > 100 µM (inactive)
- GI50 [4]: > 100 µM (inactive)
- GI50 [5]: > 100 µM (inactive)
- GI50 [6]: 73.6 µM (inactive)

Structure (SMILES): CC(=O)OCC1(CNc2nc(N)ncc2C#N)CC(CCc2ccccc2)C1 (stereo not drawn)
- GI50 [7]: 26.2 µM (inactive)

Structure (SMILES): Cc1nc(O)nc(N/N=C/c2ccc(Cl)cc2)c1C(=O)NC(C)(CO)CO
- GI50 [7]: > 100 µM (inactive)

Structure (SMILES): O=C1N/C(=N/N=C/C(O)C(O)C(O)CO)N/C1=C\c1ccco1 (stereo not drawn)
- GI50 [7]: > 100 µM (inactive)
